Assay results: publication PMC10935098 (Molecules, 2024)
Values after ≈ are worked out from the molar mass of the structure shown. Where a SMILES comes first, the peptide text is derived from it. Bridges are numbered along the chain shown (N, C = ends). [ ]: non-standard residue; d: D form.

What was measured:
[1] = tested on: Escherichia coli (BNCC336902); settings: BNCC336902, 24 h
[2] = tested on: Candida parapsilosis (BNCC336015); settings: BNCC336015, 24 h
[3] = tested on: Candida tropicalis (BNCC340288); settings: BNCC340288, 24 h
[4] = tested on: Bacillus subtilis (BNCC109047); settings: BNCC109047, 24 h
[5] = tested on: erythrocytes of C57BL/6 mice; settings: 128 µM
trypsin = settings: pH 6.8
in vitro = settings: serum
C57BL/6 mice = settings: mouse, ip, 10 mg/kg
Candida tropicalis [6] = type: cell-based
Candida tropicalis [7] = type: cell-based; remark: listed apart in the source
[8] = tested on: human hepatocytes (THLE-3)
Bacillus subtilis = type: cell-based

| SMILES | MIC, E. coli [1] [µM] | MIC, C. parapsilosis [2] [µM] | MIC, C. tropical [3] [µM] | MIC, B. subtilis [4] [µM] | Hemolysis [5] | Stability in SIF (trypsin) | remaining at 4 h (in vitro) [%] | Body weight change (C57BL/6 mice; in vivo) | Effect on growth of Candida tropicalis (growth curve) (Candida tropicalis [6]) | Bactericidal effect on Candida tropicalis (Candida tropicalis [7]) | Fungal counts after 60 min (Candida tropicalis [7]) | Reduction of fungal counts (Candida tropicalis [7]) | Toxicity on human hepatocyte THLE-3 [8] | In vivo safety in mice (C57BL/6 mice) | Cytotoxicity on human hepatocyte THLE-3 [8] | Effect on growth of Bacillus subtilis (growth curve) (Bacillus subtilis) |
| --- | --- | --- | --- | --- | --- | --- | --- | --- | --- | --- | --- | --- | --- | --- | --- | --- |
| CC(C)C[C@@H]1NC(=O)[C@@H]2CSSC[C@@H](C(N)=O)NC(=O)[C@@H](CCCCN)NC(=O)[C@H](Cc3ccc(O)cc3)NC(=O)[C@@H](CCCCN)NC(=O)[C@H](CSSC[C@H](NC(=O)CN)C(=O)N2)NC(=O)[C@@H](CCCCN)NC(=O)[C@H](CC(C)C)NC(=O)[C@@H](CCCCN)NC1=O [Pep 1] (H-GCCL[dK]L[dK]C[dK]Y[dK]C-NH2; disulfide 2-8, 3-12) | >64 | >64 | >64 | >64 | – | – | – | – | – | – | – | – | – | – | – | – |
| CC(C)C[C@@H]1NC(=O)[C@@H]2CSSC[C@@H](C(N)=O)NC(=O)[C@@H](CCCCN)NC(=O)[C@H](Cc3c[nH]c4ccccc34)NC(=O)[C@@H](CCCCN)NC(=O)[C@H](CSSC[C@H](NC(=O)[C@@H](N)CC(C)C)C(=O)N2)NC(=O)[C@@H](CCCCN)NC(=O)[C@H](CC(C)C)NC(=O)[C@@H](CCCCN)NC1=O [Pep 2] (H-LCCL[dK]L[dK]C[dK]W[dK]C-NH2; disulfide 2-8, 3-12) | >64 | >64 | >64 | >64 | – | – | – | – | – | – | – | – | – | – | – | – |
| CC(C)C[C@@H]1NC(=O)[C@@H]2CSSC[C@@H](C(N)=O)NC(=O)[C@@H](CCCCN)NC(=O)[C@H](CC(C)C)NC(=O)[C@@H](CCCCN)NC(=O)[C@H](CSSC[C@H](NC(=O)[C@@H](N)CC(C)C)C(=O)N2)NC(=O)[C@@H](CCCCN)NC(=O)[C@H](CC(C)C)NC(=O)[C@@H](CCCCN)NC1=O [Pep 3] (H-LCCL[dK]L[dK]C[dK]L[dK]C-NH2; disulfide 2-8, 3-12) | >64 | >64 | >64 | >64 | – | – | – | – | – | – | – | – | – | – | – | – |
| CC(C)C[C@@H]1NC(=O)[C@@H]2CSSC[C@@H](C(N)=O)NC(=O)[C@@H](CCCCN)NC(=O)[C@H](CC(C)C)NC(=O)[C@@H](CCCCN)NC(=O)[C@H](CSSC[C@H](NC(=O)[C@@H](N)CC(C)C)C(=O)N2)NC(=O)[C@H](C)NC(=O)[C@@H](CCCCN)NC(=O)[C@H](CC(C)C)NC(=O)[C@@H](CCCCN)NC1=O [Pep 4] (H-LCCL[dK]L[dK]AC[dK]L[dK]C-NH2; disulfide 2-9, 3-13) | >64 | >64 | >64 | >64 | – | – | – | – | – | – | – | – | – | – | – | – |
| CC(C)C[C@@H]1NC(=O)[C@@H]2CSSC[C@@H](C(N)=O)NC(=O)[C@@H](CCCCN)NC(=O)[C@H](CC(C)C)NC(=O)[C@@H](CCCCN)NC(=O)[C@H](CC(C)C)NC(=O)[C@@H](CCCCN)NC(=O)[C@H](CSSC[C@H](NC(=O)[C@@H](N)CC(C)C)C(=O)N2)NC(=O)[C@@H](CCCCN)NC1=O [Pep 5] (H-LCCL[dK]C[dK]L[dK]L[dK]C-NH2; disulfide 2-6, 3-12) | 32 (≈ 44.5 µg/mL) | 128 (≈ 178 µg/mL) | 64 (≈ 89 µg/mL) | 128 (≈ 178 µg/mL) | less than 5% | remained almost entirely intact after 24 h | 20 | – | – | – | – | – | – | – | – | – |
| CC(C)C[C@@H]1NC(=O)[C@@H](CCCCN)NC(=O)[C@@H]2CSSC[C@H](NC(=O)[C@H](CC(C)C)NC(=O)[C@@H](CCCCN)NC(=O)[C@@H](CCCCN)NC(=O)[C@@H](N)CC(C)C)C(=O)N[C@@H](CSSC[C@@H](C(N)=O)NC(=O)[C@@H](CCCCN)NC1=O)C(=O)N[C@H](CCCCN)C(=O)N2 [Pep 6] (H-L[dK][dK]LCC[dK]C[dK]L[dK]C-NH2; disulfide 5-8, 6-12) | 128 (≈ 180 µg/mL) | 32 (≈ 45 µg/mL) | 8 (≈ 11.2 µg/mL) | 64 (≈ 90 µg/mL) | less than 5% | remained almost entirely intact after 24 h | 20 | no significant changes | inhibitory effects | significant bactericidal effect | 1 × 10^3 cfu/mL | over 1000 fold | little or no toxicity | – | – | – |
| CC(C)C[C@@H]1NC(=O)[C@H](CCCCN)NC(=O)[C@H](CC(C)C)NC(=O)[C@H](CCCCN)NC(=O)[C@@H]2CSSC[C@H](NC(=O)[C@@H](N)CC(C)C)C(=O)N[C@@H](CSSC[C@@H](C(N)=O)NC(=O)[C@H](CCCCN)NC1=O)C(=O)N[C@@H](CC(C)C)C(=O)N[C@@H](CCCCN)C(=O)N2 [Pep 7] (H-LCCLKCKLKLKC-NH2; disulfide 2-6, 3-12) | >128 | 64 (≈ 89 µg/mL) | 64 (≈ 89 µg/mL) | 64 (≈ 89 µg/mL) | – | nearly fully degraded within one hour | – | – | – | – | – | – | – | – | – | – |
| CC(C)C[C@@H]1NC(=O)[C@@H]2CSSC[C@@H](C(N)=O)NC(=O)[C@@H](CCCNC(=N)N)NC(=O)[C@H](CC(C)C)NC(=O)[C@@H](CCCCN)NC(=O)[C@H](CC(C)C)NC(=O)[C@@H](CCCNC(=N)N)NC(=O)[C@H](CSSC[C@H](NC(=O)[C@@H](N)CC(C)C)C(=O)N2)NC(=O)[C@@H](CCCNC(=N)N)NC1=O [Pep 8] (H-LCCL[dR]C[dR]L[dK]L[dR]C-NH2; disulfide 2-6, 3-12) | 128 (≈ 189 µg/mL) | 8 (≈ 11.8 µg/mL) | 8 (≈ 11.8 µg/mL) | 16 (≈ 23.6 µg/mL) | less than 5% | remained almost entirely intact after 24 h | 20 | – | inhibitory effects | significant bactericidal effect | 1 × 10^3 cfu/mL | over 1000 fold | – | favorable safety | remarkable cytotoxicity | inhibitory effects |
| CC(C)C[C@@H]1NC(=O)[C@H](CCCCN)NC(=O)[C@@H]2CSSC[C@H](NC(=O)[C@H](CC(C)C)NC(=O)[C@H](CCCCN)NC(=O)[C@H](CCCCN)NC(=O)[C@@H](N)CC(C)C)C(=O)N[C@@H](CSSC[C@@H](C(N)=O)NC(=O)[C@H](CCCCN)NC1=O)C(=O)N[C@@H](CCCCN)C(=O)N2 [Pep 9] (H-LKKLCCKCKLKC-NH2; disulfide 5-8, 6-12) | >128 | 16 (≈ 22.5 µg/mL) | 16 (≈ 22.5 µg/mL) | 128 (≈ 180 µg/mL) | – | nearly fully degraded within one hour | – | – | inhibitory effects | – | 1 × 10^3 cfu/mL | over 1000 fold | little or no toxicity | – | – | – |
